EC50 and MIC data for 13 molecules are collected here from patent US12173018B2, “Penicillin-binding protein inhibitors” (priority 2018, dated 2024).

Assay [1] deals with E. coli PBP3 (Escherichia coli (strain K12), UniProt P0AD68). Put plainly: E. coli PBP3 Bocillin-FL fluorescence polarization competition binding assay. In short, it runs like this: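 Purified PBP (1.5 μM final) was combined with test compound (0–1000 μM) and Bocillin-FL (fluorescent penicillin V, 0.1 μM final) in 50 mM Hepes pH 8.0, 300 mM NaCl, 5% glycerol.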
Sequence of E. coli PBP3 (P0AD68 whole entry): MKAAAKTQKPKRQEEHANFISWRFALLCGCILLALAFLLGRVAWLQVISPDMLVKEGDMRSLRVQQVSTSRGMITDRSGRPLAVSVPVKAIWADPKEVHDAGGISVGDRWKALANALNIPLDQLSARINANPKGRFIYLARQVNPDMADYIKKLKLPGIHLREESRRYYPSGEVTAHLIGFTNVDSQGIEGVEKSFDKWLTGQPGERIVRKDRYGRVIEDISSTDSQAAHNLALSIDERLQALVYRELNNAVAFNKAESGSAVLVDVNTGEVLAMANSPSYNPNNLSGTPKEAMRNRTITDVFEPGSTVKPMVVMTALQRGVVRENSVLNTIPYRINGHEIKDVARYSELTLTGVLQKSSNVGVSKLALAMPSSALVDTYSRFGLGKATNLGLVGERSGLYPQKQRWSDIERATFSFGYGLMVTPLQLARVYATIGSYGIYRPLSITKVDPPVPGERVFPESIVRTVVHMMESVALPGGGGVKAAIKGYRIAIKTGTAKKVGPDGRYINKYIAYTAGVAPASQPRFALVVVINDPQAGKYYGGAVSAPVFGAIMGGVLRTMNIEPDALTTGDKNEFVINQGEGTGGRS
For orientation: Fluorescence polarisation rises when a labelled molecule tumbles more slowly, as on binding a larger partner.

For assay [2], the system named is engineered strain of Escherichia coli harboring CTX-M15. Put plainly: microbe, parasite or virus in culture. Type of assay: cell-based. Conditions: Escherichia coli, read-out: Microbiological Activity (MIC in mg/L), E. coli DH5α/pLBII-CTX-M15, engineered strain producing CTX-M15. As for the experimental part:
Briefly, cryo-preserved bacterial cultures of challenge strains are streaked for isolation on appropriate agar medium, in this case Mueller Hinton II agar. Following incubation to allow growth of the colonies, plates are sealed with parafilm and stored refrigerated for up to two weeks. For preparation of assay inoculum and to ensure low variability, at least 5 colonies are picked from the agar plates with an inoculating loop and aseptically transferred to a culture tube containing 3 mL of Mueller-Hinton Broth (supplemented with divalent cations to required levels based on Manufacturers' certification). The broth culture is grown for 3-5 hours at 37° C. with shaking at 200 rpm. Meanwhile, 2-fold serial dilutions of test compounds are conducted in a 96 well plate with a final volume of 75 μL per well at 2-fold the final desired concentration. After the dilution plates are set up the growing cultures are then diluted in a cuvette containing MH II broth and the optical density is measured at 600 nm. The Inoculum is diluted such that 75 μL of this culture in Mueller-Hinton Broth results in a starting bacterial concentration of 5×10^5 CFU/mL when added to the dilution plates. The plates are incubated for 16-20 hours at 37° C. The MIC values are read visually as the lowest concentration well with no bacterial growth.
To determine if test compounds were affected by CTX-M15, the most abundant extended spectrum […] in clinical settings worldwide, the inhibition of the growth of an engineered strain of Escherichia coli harboring CTX-M15 was tested. This strain was constructed by cloning the gene encoding CTX-M15 into the NdeI and BamHI restriction endonuclease sites of plasmid pLBII, placing the gene(s) under the control of the Lac promoter. The constructed expression plasmid for CTX-M15 was used to transform competent E. coli DH5α cells to make the engineered strain, including an empty pLBII vector control strain. The classic cell based broth microdilution MIC assay was employed as described above with the addition of control antibiotics, known to be degraded by β-lactamases (Ceftazidime, piperacillin and piperacillin+tazobactam).

The test system of assay [3] is N. gonorrhoeae ATCC 49226. Put plainly: Liquid broth MIC, N. gonorrhoeae ATCC 49226. It counts as cell-based. Conditions: Neisseria gonorrhoeae, ATCC49226; N. gonorrhoeae ATCC 49226, liquid broth; read-out: Minimum Inhibitory Concentration, N. gonorrhoeae ATCC 49226. The method, then: (§1) Additional antibacterial testing of the series was performed in wild-type reference strains of N. gonorrhoeae (ATCC 49226, FA1090, WHO F and FA19). Liquid broth-based assays were used for antibacterial testing of PBP inhibitors in Neisseria gonorrhoeae. Briefly, cryo-preserved bacterial cultures of clinical strains are streaked for isolation on GC Base agar (BD #228950 at 36 g/L autoclaved at 121° C. for 20 minutes to sterilize) with 1% Kellogg's supplement (40 g glucose, 0.5 g glutamine, 0.05 g ferric nitrate and 2 mg cocarboxylase per 100 mL deionized water filter sterilized through 0.2 μm syringe filters). Following incubation at 36° C. and 5% CO2 to allow growth of colonies, strains are aseptically sub-cultured from original agar plate onto 3 agar plates per strain 24 hours before inoculum preparation. 2-fold serial dilutions of test compounds are conducted in a 96 well plate with a final volume of 150 μL per well at 4/3-fold the final desired concentration. For preparation of assay inoculum, a direct suspension is prepared by aseptically swabbing all colonies from sub-cultured agar plates into culture tubes containing 2 mL of fresh GC broth with […]. After the dilution plates are set up, direct suspensions are then diluted in a cuvette containing GC broth (15 g proteose peptone 43, 1 g corn starch, 4 g dipotassium phosphate, 1 g monopotassium phosphate and 5 g sodium chloride per liter of deionized water are mixed on a stir plate for 20 minutes, pH adjusted to 7.2+/−0.2 pH units with 1 N HCl, centrifuged at 10,000×g for 20 minutes to pellet undissolved corn starch and then autoclaved at 121° C. for 20 minutes to sterilize) and the optical density is measured at 600 nm. Inocula are diluted such that 50 μL of this culture in […] results in a starting bacterial concentration of 5×10^5 CFU/mL when added to the dilution plates. The plates are incubated 40-42 hours at 36° C. and 5% CO2. The MIC is read visually as the lowest concentration well with no bacterial growth.

Assay [4] has as its system N. gonorrhoeae FA19. Put plainly: Liquid broth MIC, N. gonorrhoeae FA19. Conditions: Neisseria gonorrhoeae; N. gonorrhoeae FA19, liquid broth; read-out: Minimum Inhibitory Concentration, N. gonorrhoeae FA19. It counts as cell-based. The method, then:
as §1

The subject of assay [5] is N. gonorrhoeae FA1090. Put plainly: Liquid broth MIC, N. gonorrhoeae FA1090. Type of assay: cell-based. Conditions: Neisseria gonorrhoeae; N. gonorrhoeae FA1090, liquid broth; read-out: Minimum Inhibitory Concentration, N. gonorrhoeae FA1090. As for the experimental part:
as §1

Assay [6] deals with N. gonorrhoeae WHO F. Put plainly: Liquid broth MIC, N. gonorrhoeae WHO F. Particulars: Neisseria gonorrhoeae; N. gonorrhoeae WHO F, liquid broth; read-out: Minimum Inhibitory Concentration, N. gonorrhoeae WHO F. Type of assay: cell-based. As for the experimental part:
as §1

[7] abbreviates: fluorescence polarization competition binding with Bocillin-FL, read-out: E. coli K12 PBP3 Potency.

pEC50: −log10 of the molar value. Converted amounts (≈) assume the structure as drawn. Counter-ions that a name gives are not always drawn. Like-named read-outs stand apart in the source and are kept apart here.

The molecule `CCN1CCN(C(=O)NC(C(=O)N[C@H]2Cc3cccc(C(=O)O)c3OB2O)c2c(C)n[nH]c2C)C(=O)C1=O` (stereo partly drawn) [Example 54, (3R)-3-(2-(3,5-dimethyl-1H-pyrazol-4-yl)-2-(4-ethyl-2,3-dioxopiperazine-1-carboxamido)acetamido)-2-hydroxy-3,4-dihydro-2H-benzo[e][1,2]oxaborinine-8-carboxylic acid, trifluoroacetic acid salt] had a pEC50 in assay [1] of 3.30 to 4.52. Moreover, the MIC in assay [2] was 128 to 256 mg/L.
As to `CCN1CCN(C(=O)NC(C(=O)N[C@H]2Cc3cccc(C(=O)O)c3OB2O)c2ccsc2)C(=O)C1=O` (stereo partly drawn) [Example 137, (3R)-3-(2-(4-ethyl-2,3-dioxopiperazine-1-carboxamido)-2-(thiophen-3-yl)acetamido)-2-hydroxy-3,4-dihydro-2H-benzo[e][1,2]oxaborinine-8-carboxylic acid], the MIC was 1 to 2 µg/mL (≈ 1.94 to 3.89 µM) in assay [3], 4 to 8 µg/mL (≈ 7.78 to 15.6 µM) in assay [4], below 0.125 µg/mL in assay [5] and below 0.125 µg/mL in assay [6]. In assay [1], the pEC50 was 3.30 to 4.52.
For the molecule `CCN1CCN(C(=O)NC(C(=O)N[C@H]2Cc3cccc(C(=O)O)c3OB2O)C2CCNC2)C(=O)C1=O` (stereo partly drawn) [Example 55, (3R)-3-(2-(4-ethyl-2,3-dioxopiperazine-1-carboxamido)-2-(pyrrolidin-3-yl)acetamido)-2-hydroxy-3,4-dihydro-2H-benzo[e][1,2]oxaborinine-8-carboxylic acid, trifluoroacetic acid salt], the pEC50 in assay [1] (setting [7]) was below 3.30. Also, the MIC in assay [2] fell in the range of 128 to 256 mg/L.
The matching figures for `CCN1CCN(C(=O)N[C@H](CNS(C)(=O)=O)C(=O)N[C@H]2Cc3cccc(C(=O)O)c3OB2O)C(=O)C1=O` [Example 83, (R)-3-((R)-2-(4-ethyl-2,3-dioxopiperazine-1-carboxamido)-3-(methylsulfonamido)propanamido)-2-hydroxy-3,4-dihydro-2H-benzo[e][1,2]oxaborinine-8-carboxylic acid]: below 3.30 and 32 to 64 mg/L (≈ 59.3 to 119 µM).
For the molecule `Nc1ncc(C(NC(=O)N2CCN(CCF)C(=O)C2=O)C(=O)N[C@H]2Cc3ccc(F)c(C(=O)O)c3OB2O)s1` (stereo partly drawn) [Example 153, (3R)-3-(2-(2-aminothiazol-5-yl)-2-(4-(2-fluoroethyl)-2,3-dioxopiperazine-1-carboxamido)acetamido)-7-fluoro-2-hydroxy-3,4-dihydro-2H-benzo[e][1,2]oxaborinine-8-carboxylic acid], the MIC is 1 to 2 µg/mL (≈ 1.77 to 3.53 µM) in assay [3], 1 to 2 µg/mL (≈ 1.77 to 3.53 µM) in assay [4], 0.25 to 0.5 µg/mL (≈ 0.441 to 0.883 µM) in assay [5] and 0.25 to 0.5 µg/mL (≈ 0.441 to 0.883 µM) in assay [6]. In assay [1], this molecule showed a pEC50 of 3.30 to 4.52.
On to `CCN1CCN(C(=O)N[C@@H](C(=O)N[C@H]2Cc3cc(O)c(O)c(C(=O)O)c3OB2O)[C@@H](C)O)C(=O)C1=O` [Example 95, (R)-3-((2R,3R)-2-(4-ethyl-2,3-dioxopiperazine-1-carboxamido)-3-hydroxybutanamido)-2,6,7-trihydroxy-3,4-dihydro-2H-benzo[e][1,2]oxaborinine-8-carboxylic acid], for which the pEC50 in assay [1] (setting [7]) was below 3.30. Further, the MIC in assay [2] fell in the range of 128 to 256 mg/L (≈ 252 to 504 µM).
For `CCN1CCN(C(=O)N[C@@H](C(=O)N[C@H]2Cc3cccc(C(=O)O)c3OB2O)[C@@H](C)OCC(N)=O)C(=O)C1=O` [Example 66, (R)-3-((2R,3R)-3-(2-amino-2-oxoethoxy)-2-(4-ethyl-2,3-dioxopiperazine-1-carboxamido)butanamido)-2-hydroxy-3,4-dihydro-2H-benzo[e][1,2]oxaborinine-8-carboxylic acid], the pEC50 in assay [1] was 3.30 to 4.52. The MIC in assay [2] was in the range of 32 to 64 mg/L (≈ 60 to 120 µM).
As for `CCN1CCN(C(=O)NC(C(=O)N[C@H]2Cc3cccc(C(=O)O)c3OB2O)C2CCN(CC(N)=O)C2)C(=O)C1=O` (stereo partly drawn) [Example 57, (3R)-3-(2-(1-(2-amino-2-oxoethyl)pyrrolidin-3-yl)-2-(4-ethyl-2,3-dioxopiperazine-1-carboxamido)acetamido)-2-hydroxy-3,4-dihydro-2H-benzo[e][1,2]oxaborinine-8-carboxylic acid, trifluoroacetic acid salt], the pEC50 in assay [1] (setting [7]) is below 3.30. The MIC in assay [2] lay in the range of 128 to 256 mg/L.
The corresponding values for `CCN1CCN(C(=O)N[C@H](CNS(=O)(=O)C(F)(F)F)C(=O)N[C@H]2Cc3cccc(C(=O)O)c3OB2O)C(=O)C1=O` [Example 75, (R)-3-((R)-2-(4-ethyl-2,3-dioxopiperazine-1-carboxamido)-3-((trifluoromethyl)sulfonamido)propanamido)-2-hydroxy-3,4-dihydro-2H-benzo[e][1,2]oxaborinine-8-carboxylic acid] are below 3.30 and 128 to 256 mg/L (≈ 216 to 431 µM).
The corresponding values for `C[C@@H](O)[C@@H](NC(=O)N1CCN(CCF)C(=O)C1=O)C(=O)N[C@H]1Cc2cc(O)c(O)c(C(=O)O)c2OB1O` [Example 94, (R)-3-((2R,3R)-2-(4-(2-fluoroethyl)-2,3-dioxopiperazine-1-carboxamido)-3-hydroxybutanamido)-2,6,7-trihydroxy-3,4-dihydro-2H-benzo[e][1,2]oxaborinine-8-carboxylic acid] are below 3.30 and 128 to 256 mg/L (≈ 243 to 486 µM).
Turning to `CCN1CCN(C(=O)N[C@@H](C(=O)N[C@H]2Cc3cccc(C(=O)O)c3OB2O)C2(CO)CC2)C(=O)C1=O` [Example 62, (R)-3-((R)-2-(4-ethyl-2,3-dioxopiperazine-1-carboxamido)-2-(1-(hydroxymethyl)cyclopropyl)acetamido)-2-hydroxy-3,4-dihydro-2H-benzo[e][1,2]oxaborinine-8-carboxylic acid], the MIC in assay [2] was 32 to 64 mg/L (≈ 63.7 to 127 µM).
With `CCN1CCN(C(=O)N[C@@H](C(=O)N[C@H]2Cc3cc(O)c(O)c(C(=O)O)c3OB2O)[C@H](C)O)C(=O)C1=O` [Example 96, (R)-3-((2R,3S)-2-(4-ethyl-2,3-dioxopiperazine-1-carboxamido)-3-hydroxybutanamido)-2,6,7-trihydroxy-3,4-dihydro-2H-benzo[e][1,2]oxaborinine-8-carboxylic acid], in assay [1] (setting [7]), the pEC50 was below 3.30. Besides, the MIC in assay [2] was in the range of 128 to 256 mg/L (≈ 252 to 504 µM).
The matching figures for `CCN1CCN(C(=O)N[C@@](C)(C(=O)N[C@H]2Cc3cccc(C(=O)O)c3OB2O)c2csc(N)n2)C(=O)C1=O` [Example 97, (R)-3-((R)-2-(2-aminothiazol-4-yl)-2-(4-ethyl-2,3-dioxopiperazine-1-carboxamido)propanamido)-2-hydroxy-3,4-dihydro-2H-benzo[e][1,2]oxaborinine-8-carboxylic acid]: below 3.30 and 128 to 256 mg/L (≈ 235 to 470 µM).
